# Patent US7935530B2, “Polyamides with tail structures capable of binding DNA” (California Institute of Technology, priority 2006, dated 2011)
# Where “and” joins values, the source holds several entries; their conditions need not be identical. Equal entries are not always repeated. Entries after “also recorded” stand apart in the source; their conditions may differ. Where two headings read alike, the source gives them in different places.
# Legend:
# [1] = tested on: 5′-ATACGT-3′ sequence within the HRE of the VEGF promoter; experiment: Quantitative DNase I footprint titration on pGL2-VEGF-Luc PCR product, VEGF HRE; assay type: binding; conditions: for Ka at the VEGF HRE: Example 2, pGL2-VEGF-Luc
# Experimental: Quantitative DNase I footprint titration experiments were used to determine polyamide-binding affinities (Ka) to the 5′-ATACGT-3′ sequence within the HRE of the VEGF promoter. These experiments were performed using the 5′-^32P-labeled 197 bp PCR amplification product of the plasmid pGL2-VEGF-Luc isolated by non-denaturing gel electrophoresis (16, 21). Quantitative DNase I footprint titration experiments were conducted as reported previously (21).
# (§1) Quantitative DNase I footprint titration experiments were used to measure the binding affinities of polyamides 11.1, 11.2, 11.3, and echinomycin on 5′ ^32P-labeled fragments of pGL2-VEGF-Luc and pCSJ-FLT1 containing promoter sequences containing the HREs of VEGF and FLT1, respectively. Quantitative DNase I footprint titration experiments were conducted as reported previously (56).
# FLT1 HRE = experiment: Quantitative DNase I footprint titration on pCSJ-FLT1, FLT1 HRE; assay type: binding
# Experimental: as §1
# FLT1 mRNA = experiment: DFO-induced FLT1 mRNA by quantitative real-time RT-PCR, U251 cells; assay type: cell-based, human; conditions: for HIF-1 induced genes affected: FLT1: HRE gaacAACGTGgaat, E 100 nM, 11.1 and 11.3 1 μM, U251; for Effect on DFO-induced FLT1 mRNA (in words): U251 cells, polyamides 1 μM, echinomycin 100 nM
# Experimental: (§2) U251 cells were plated in 24-well plates at a density of 20−30×10^3 cells per well (40−60×10^3 cells/ml) in RPMI (ATCC) supplemented with 5% FBS (Irvine Scientific). After 24 hours, polyamides were added to the adhered cells in cell media solutions at the appropriate concentration and incubated with the cells for 48 hours. […] When appropriate, echinomycin was added two hours prior to DFO stimulation. Isolation of RNA and subsequent cDNA synthesis were as previously described (19). When appropriate, HIF-1α siRNA (HIF-1α validated stealth duplex, Invitrogen) or mismatch control siRNA with similar GC content (Invitrogen) was transfected 48 hours prior to RNA isolation. Transfection of siRNA was achieved using Lipofectamine 2000 (Invitrogen) according to manufacturer's protocols. Quantitative real-time RT-PCR was performed using SYBR Green PCR Master Mix (Applied Biosystems) on an ABI 7300 instrument. Target gene mRNA was measured relative to β-glucuronidase as an endogenous control. Primer employed were: VEGF, L 5′[…]-3′ (SEQ ID NO:22), R 5′-GGGTACTCC TGGAAGATGTCC-3′ (SEQ ID NO:23); β-glucuronidase, L 5′-[…]-3′ (SEQ ID NO:24), R 5′-[…]-3′ (SEQ ID NO:25); FLT1, L 5′-[…]-3′ (SEQ ID NO:26), R 5′-[…]-3′ (SEQ ID NO:27).
# [2] = tested on: HIF-1α occupancy at the VEGF HRE; experiment: Chromatin immunoprecipitation with anti-HIF1α, U251 cells, VEGF HRE; assay type: cell-based, human; conditions: DFO-induced, polyamides 1 μM, echinomycin 100 nM
# Experimental: Cells were plated on 15 cm diameter culture dishes and left to attach overnight. Polyamides were incubated with the cells for 48 h, and the cells were incubated for an additional 16 h after the addition of DFO to a final concentration of 300 μM. Cells were then treated with 1% formaldehyde for 10 min. Chromatin was isolated and sheared. HIF-1 antibodies (Novus Biologicals) were used to immunoprecipitate HIF-1 bound DNA fragments. After crosslink reversal, PCRs using primers flanking the HRE of VEGF were used to assess enrichment of bound fragments as compared to mock-precipitated (no antibody) controls. PCRs were monitored either using SYBR Green PCR Master Mix (Applied Biosystems) on an ABI 7300 instrument, or directly visualized using gel electrophoresis.
# U251 cells were plated in 15 cm diameter plates and left to attach overnight. Media, time course, DFO, polyamide, echinomycin, and siRNA treatments were as described above. After the 16 hour DFO treatment, cells were treated with 1% formaldehyde for 10 minutes. Chromatin was isolated and sheared. HIF-1α antibodies (Novus Biologicals) were used to immunoprecipitate HIF-1-bound DNA fragments. After crosslink reversal, PCRs using primers targeted to the regions of interest were used to assess enrichment of bound fragments as compared to mock-precipitated (no antibody) controls. PCRs were monitored either using SYBR Green PCR Master Mix (Applied Biosystems) on an ABI 7300 instrument, or directly visualized using gel electrophoresis. The following primers were used: VEGF, L 5′-CCTTTGGGTTTTGCCAGA-3′ (SEQ ID NO:28), R 5′-CCAAGTTTGTGGAGCTGA-3′ (SEQ ID NO:29); CA9, L 5′-AAAAGGGCGCTCTGTGAGT-3′ (SEQ ID NO:30), R 5′-GCTGACTGTGGGGTGTCC-3′ (SEQ ID NO:31); PGK1, L 5′-CCCCTAAGTCGGGAAGGTT-3′ (SEQ ID NO:32), R 5′-[…]-3′ (SEQ ID NO:33).
# U251 cells = experiment: Microarray analysis of gene expression (Affymetrix Human Genome U133 Plus 2.0), DFO-induced U251 cells; assay type: cell-based; conditions: for Number of transcripts affected (p ≦ 0.01): down-regulated (fold change ≦ −2.0) / Number of transcripts affected (p ≦ 0.01): down-regulated (fold change ≦ −4.0) / Number of transcripts affected (p ≦ 0.01): up-regulatd (fold change ≧ 4.0) / Number of transcripts affected (p ≦ 0.01): up-regulated (fold change ≧ 2.0): DFO +; for Number of transcripts whose expression is affected by more than 2-fold (p≦0.01): polyamide 1 μM, echinomycin 100 nM, normalized to DFO-treated controls
# Experimental: One potential limitation to the use of hairpin-polyamides for gene regulation is binding site size and specificity for match versus mismatch sites, which may result in prohibitively large numbers of affected genes. To examine this, the global effects of polyamide treatment on hypoxia-induced gene expression were measured using Affymetrix Human Genome U133 Plus 2.0 Arrays containing oligonucleotide sequences representing more than 50,000 transcripts. To establish a benchmark for comparison, the effects of HIF-1α siRNA and echinomycin were also measured. Experiments were conducted in triplicate, and gene expression levels normalized to DFO-treated controls. Cells not treated with DFO were normalized to DFO-treated controls.
# U251 cells were plated in 12-well plates at a density of 40-60×10^3 cells per well. Media, time course, DFO, polyamide, echinomycin, and siRNA treatments were as described above. RNA was isolated as previously described. Further sample preparation for microarray experiments was carried out at the Millard and Muriel Jacobs Gene Expression Facility at Caltech. Labeled mRNA was hybridized to Affymetrix Human 133 arrays according to established protocols. Gene expression was analyzed using Resolver (Rosetta Biosoftware, Seattle).
# LDHA = experiment: HIF-1 induced gene expression, U251 cells (Table 3), LDHA; assay type: cell-based, human; conditions: HREs ggcgGACGTGcggg, ctcaCACGTGggtt, E 100 nM
# Experimental: as §2
# EGLN3 = experiment: HIF-1 induced gene expression, U251 cells (Table 3), EGLN3; assay type: cell-based, human; conditions: HRE gggcTACGTGcaga, E 100 nM
# Experimental: as §2
# PGK1 = experiment: HIF-1 induced gene expression, U251 cells (Table 3), PGK1; assay type: cell-based, human; conditions: HREs gtgaGACGTGcggc, tgccGACGTGcgct, E 100 nM
# Experimental: as §2
Compound,HIF-1 induced genes affected: FLT1 (FLT1 mRNA),HIF-1α occupancy at the VEGF HRE (chromatin immunoprecipitation) [2],Number of transcripts affected (p ≦ 0.01): down-regulated (fold change ≦ −2.0) (U251 cells),Number of transcripts affected (p ≦ 0.01): down-regulated (fold change ≦ −4.0) (U251 cells),Number of transcripts affected (p ≦ 0.01): up-regulatd (fold change ≧ 4.0) (U251 cells),Number of transcripts affected (p ≦ 0.01): up-regulated (fold change ≧ 2.0) (U251 cells),Number of the 31 previously identified direct HIF-1 target transcripts (induced at least 1.5-fold by DFO) down-regulated / inhibited (U251 cells; DFO-induced U251),Number of the 297 transcripts induced by DFO at least 4-fold that are inhibited by ≧2-fold (p≦0.01) (U251 cells; DFO-induced U251),Number of transcripts whose expression is affected by more than 2-fold (p≦0.01) (U251 cells; DFO-induced U251),HIF-1 induced genes affected: LDHA (LDHA; 11.1 and 11.3 1 μM),HIF-1 induced genes affected: EGLN3 (EGLN3; 11.1 and 11.3 1 μM),HIF-1 induced genes affected: PGK1 (PGK1; 11.1 and 11.3 1 μM),Ka at the VEGF HRE [1],Ka at the FLT1 HRE (FLT1 HRE),further results
CN(CCCNC(=O)c1cccc(C(=O)O)c1)CCCNC(=O)c1cc(NC(=O)c2cc(NC(=O)c3nc(NC(=O)c4cc(NC(=O)[C@H](N)CCNC(=O)c5nc(NC(=O)c6cc(NC(=O)c7cc(NC(=O)c8sccc8Cl)cn7C)cn6C)cn5C)cn4C)cn3C)cn2C)cn1C [Polyamide 11],-2.0,decreased occupancy of HIF-1α at the VEGF HRE; also recorded: inhibited,"1,575",336,57,709,14,69,"2,284",1.3,1.0,-1.2,–,–,"Binding affinities (M-1), 5′-TACGTG-3′ (equilibrium association constants) ([1]; mean of three DNase I footprint titration experiments, standard deviations in parentheses, 197 bp PCR product of pGL2-VEGF-Luc): 2.6 (±0.4) × 10^10 M-1; Ka at the FLT1 HRE (FLT1 HRE; listed as 11.1): 2.7 (+0.2)×10^9 M^−1 and 2.7 (±0.2)×10^9 M^−1; Effect on DFO-induced FLT1 mRNA (in words) (FLT1 mRNA; listed as 11.1): inhibited FLT1 expression; also recorded: decrease FLT1 mRNA levels; HIF-1α occupancy at the VEGF HRE (chromatin immunoprecipitation) ([2]; listed as 11.1): decreased; Share of the 297 transcripts induced by DFO that were inhibited (U251 cells; DFO-induced U251): Approximately 23%; Affected transcripts (2-fold, p≦0.01) after eliminating all transcripts affected by DFO alone (1.5-fold, p≦0.01) (U251 cells; U251 microarray): 1,626; Share of interrogated / assayed transcripts affected (U251 cells; U251 microarray): less than 5%"
CN(CCCNC(=O)c1cccc(C(=O)O)c1)CCCNC(=O)c1cc(NC(=O)c2cc(NC(=O)c3cc(NC(=O)c4nc(NC(=O)[C@H](N)CCNC(=O)c5cc(NC(=O)c6cc(NC(=O)c7nc(NC(=O)c8nccn8C)cn7C)cn6C)cn5C)cn4C)cn3C)cn2C)cn1C [Polyamide 23],-1.1,more modest effect compared with that of its match congener 11,–,–,–,–,–,–,–,1.1,−1.1,1.0,8.0 (±1.0)×10^8 M^−1,does not bind the FLT1 HRE with a measurable Ka,Effect on DFO-induced FLT1 mRNA (in words) (FLT1 mRNA; listed as 11.3): minimal effect; also recorded: minimal or no effect; HIF-1α occupancy at the VEGF HRE (chromatin immunoprecipitation) ([2]; listed as 11.3): less so; also recorded: only modestly affected
"CS[C@H]1SC[C@H]2C(=O)N(C)[C@@H](C(C)C)C(=O)OC[C@@H](NC(=O)c3cnc4ccccc4n3)C(=O)N[C@@H](C)C(=O)N(C)[C@@H]1C(=O)N(C)[C@@H](C(C)C)C(=O)OC[C@@H](NC(=O)c1cnc3ccccc3n1)C(=O)N[C@@H](C)C(=O)N2C [echinomycin, reference compound]",-4.7,decreased,"7,426","4,133",413,"3,480",31,263,"10,906",–,–,–,8.4 (±2.1)×10^6 M^−1,2.9 (±0.7)×10^7 M^−1,Effect on DFO-induced FLT1 mRNA (in words) (FLT1 mRNA): decrease FLT1 mRNA levels; Effect on DFO-induced FLT1 mRNA (in words) (FLT1 mRNA; listed as Echinomycin): reduced FLT1 expression to below that of the non-induced control; HIF-1 induced genes affected: LDHA (LDHA): −4.4; HIF-1 induced genes affected: EGLN3 (EGLN3): −33.6; HIF-1 induced genes affected: PGK1 (PGK1): -3.3
